Results as given in patent US20210388213A1, “PROCESS FOR PRODUCING AQUEOUS COATING COMPOSITIONS” (CELANESE INTERNATIONAL CORPORATION, priority 2018, published 2021).

System: mixture of bacteria, yeasts and fungi/moulds (inoculum)
Experiment: Challenge test of preserved polymer dispersions with mixed inoculum (repeated up to six cycles)
Type: cell-based
Conditions: at concentrations of <15 ppm in products such as aqueous coating compositions
Experimental: 100 g of the dispersions listed above are weighed into sterile sample bottles. To each sample 1% by weight of an inoculum is added and incubated at 30° C. for 7 days. As inoculum, a suspension in water which contains the following concentrations is used: Bacteria: 8.0×10^8−2.0×10^9 cfu/cm^3 Yeasts/moulds: 8.0×10^6−2.0×10^7 cfu/cm^3 A mixture of the following bacteria, yeasts and fungi/moulds are used for the preparation of the inoculum: Bacteria mixture of: Aeromonas hydrophila (sorbia, BAM 485) Alcaligenes faecalis (BAM 486) Providencia rettgeri (BAM 488) Pseudomonas aeruginosa (BAM 489) Pseudomonas sp (BAM 490) Escherichia coli (DSM 13631) Staphylococcus aureus (DSM 346) Micrococcus Luteus (DSM 20030) Yeast mixture of: Rhodotorula rubra (DSM 13621) Saccharomyces cerevisiae (DSM 13622) Issatchenkia orientalis (DSM 6128) Filamentous Fungy mixture of: Aspergillus terréus (DSM 13630) Geotrichum candidum (DSM 13629) Fusarium Solani (DSM 13635) After 7 days the microbial contamination remaining in the samples is determined by streaking the samples out onto Trypticase Sel Agar (TSA) and on Malt Extra Agar (MEA) as nutrient media and incubated at 30° C. for 7 days. The level of growing is measured by using a rating of 0 for no growth up to a rating of 3 for full growth. The test is passed in case no growth is observed which means a rating of 0 on TSA and MEA nutrient media. […]

Compound: Cn1sc(Cl)cc1=O [CIT, 5-chloro-2-methyl-4-isothiazolin-3-one]
- protection against microbial attack: not sufficient
